From patent EP0258175A2, “5-hetero- or aryl-substituted-imidazo[2,1-a]isoquinolines” (SANDOZ AG, priority 1986, dated 1988)
Structures can show the parent of a compound that is named as a salt.

Tests used:
Abelson 8.1 tumor cells [1] = test: Tumor cell cytotoxicity Test (TCCT) (Test D), alkaline phosphatase readout; format: cell-based; conditions: at 5µg
Protocol: Test D) Tumor cell cytotoxicity Test (TCCT).
In flat bottom microtiter plates (Nunc Roskieide, Denmark) were placed Abelson 8.1 tumor cells in DMEM + 10% fetal calf serum and the tumor cell-containing plates were incubated with 1,3, and 5µg of the test compound for a period of 6 to 72 hours. The number of viable tumor cells present was determined by measuring the alkaline phosphatase in the following manner. The tumor cell plates were centrifuged (500 x g.) for ten minutes and the supernatant flicked off. Without further washing, 100 ul of buffer containing 20 ul of diethanolamine, 2uM of MgCl₂ · 6H₂O, 2.5 uM of p-nitrophenylphosphate and 10 mg Triton X-100 were added. The samples were incubated for 60 minutes at room temperature and the enzymatic reaction was terminated by the addition of 100 ul of 0.5N NaOH. The absorbance was then measured at […] using a Titertek Multiskan apparatus.

Abelson 8.1 tumor cells [2] = test: Influence on Cytotoxicity of ET-18-OCH₃ test (IC-ET test) (Test E); format: cell-based, mice; conditions: at 5 µg, macrophages pre-incubated with 10µg ET-18-OCH₃, values recorded after 72 hours, ET-18-OCH₃ alone set at 100%
Protocol: Test E) Influence on Cytotoxicity of ET-18-OCH₃ test (IC-ET test).
Bone marrow cell macrophages (10⁵/well)obtained from [BALB/CX57/BL₆]Fl mice were incubated with 10µg of 1-octadecyl-2-methoxy-3-phosphoryl choline (ET-18-OCH₃) for 24 hours in flat bottom microtiter plates (Nunc Roskieide,Denmark), after which time they are centrifuged and washed once. Abelson 8.1 tumor cells in DMEM + 10% fetal calf serum and 1,3 and 5ug of the test compound were then added to the plates. With the cytotoxicity of ET-18-OCH₃ (10ug) alone set at 100%, the inhibition or enhancement of the cytotoxic effect, as measured by an alkaline phosphatase assay, was determined and values recorded after 72 hours for 1,3 and 5ug of the test substance.

Meth A sarcoma cells = test: Meth A fibrosarcoma implant in mice (Test F): tumor growth and survivors; format: in vivo; conditions: 50µg per day p.o. for 28 days, ten CBF₁ mice implanted with 7.3 x 10⁶ Meth A sarcoma cells
Source text: Test F) Meth A fibrosarcoma cells were induced in BALB/C mice by administering methylcholanthrene according to the procedure of Old, et al. (L.J. Old, E.A. Boyse, D.A. Clarke, and E. Carswell, Ann. N.Y. Acad. Sci., 101, 80 (1962). These tumor cells were harvested from the peritoneal cavity 10 to 12 days after administration of methylcholanthrene. Ten CBF₁ mice of 10-12 week age were each implanted with 7.3 x 10⁶ Meth A sarcoma cells to serve as control. A second group of ten CBF₁ mice were each implanted with 7.3 x 10⁶ Meth A sarcoma cells and on day one after implant each mouse was treated p.o. with 5-50µg of the test compound per day for a total of twenty or twenty-seven days. Tumor growth and survivors were assayed on days 7, 14, 21 and 28 after tumor implantation.

[3] = target: T1, Human Platelet PAF Receptor (Homo sapiens, UniProt P25105); test: Human Platelet PAF Receptor Assay test (Test A): inhibition of specific binding of [³H]-PAF to platelets; conditions: inhibition of specific binding of [³H]-PAF to human platelets, read-out: IC₅₀
T1 construct: from tissue; host or cells: washed human platelets from donor blood
T1 sequence (P25105 whole entry): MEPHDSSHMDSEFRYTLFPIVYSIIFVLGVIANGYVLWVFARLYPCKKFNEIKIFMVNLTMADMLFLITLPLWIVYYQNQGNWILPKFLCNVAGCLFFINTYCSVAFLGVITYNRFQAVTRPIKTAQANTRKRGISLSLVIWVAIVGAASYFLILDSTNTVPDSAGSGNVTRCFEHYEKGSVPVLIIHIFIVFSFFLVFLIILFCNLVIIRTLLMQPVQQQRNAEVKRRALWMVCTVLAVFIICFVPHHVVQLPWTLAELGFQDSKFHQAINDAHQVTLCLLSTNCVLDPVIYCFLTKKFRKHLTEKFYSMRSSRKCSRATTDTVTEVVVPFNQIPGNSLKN
Protocol: The compounds of formula I are indicated for use as platelet activating factor receptor antagonists as indicated by their ability to inhibit specific binding of [³H]-PAF to platelets according to the Human Platelet PAF Receptor Assay test (Test A) as follows: Human blood is obtained by venipuncture of healthy, human donors into an anti-coagulant mixture containing 3.15% of trisodium citrate and 20 µg/ml of Prostaglandin I₂ (PGI₂) in a ratio of blood to anti-coagulant of 9:1. Platelet rich plasma (PRP) is prepared by centrifugation (250 x g) of the blood for 20 minutes at room temperature. […] All of the tests are conducted in duplicate and each of the test compounds is evaluated at concentrations of 100, 50, 1 and 0.1 µM. […] An additional 2 ml of Scintiverse II is then added to the vials and, after mixing, the vials are counted for 1 minute in a liquid scintillation spectrometer. The amount of specific binding is calculated as the difference in cpm between the total bound [³H]-PAF and non-specifically bound [³H]-PAF. The percent inhibition of specific binding is determined by dividing the cpm specifically bound in the presence of the test compound by the cpm specifically bound in total, multiplying by 100 and then subtracting from 100. […]

[4] = tested on: PAF-mediated bronchoconstriction; test: PAF-induced Pulmonary Inflation Pressure (PIP) Increase test (Test B); format: in vivo; conditions: Cavia porcellus, po, guinea pigs, PAF 100 ng/kg i.v., maximal PIP increase, read-out: ED₅₀
Protocol: Furthermore, in view of their potential as PAF receptor antagonists, the compounds of formula I are indicated for use as inhibitors of PAF-mediated bronch oconstriction, which property was evaluated by the PAF-induced Pulmonary Inflation Pressure (PIP) Increase test (Test B) as follows:
Male guinea pigs, weighing between 300 and 400 g, are anesthetized, after which time trachea tube, carotid and jugular cathers are inserted. The test animal is then force ventilated employing a small animal Harvard respirator and the resistance to lung inflation (PIP) is measured utilizing a pressure transducer and recorder. The test compound is administered either orally at 30 minutes up to 4 hours prior to or parenterally e.g. intravenously (jugular) etc. at 5 minutes up to 4 hours prior to the introduction of PAF. […] Any blood pressure measurements taken are recorded from a transducer attached to the carotid catheter. […] A reading at 15 minutes after the administration of PAF is termed the endpoint PIP. The effect of the test compound on the PIP response is determined by the difference between the percent increase in maximal PIP over baseline for the test animal to which has been administered PAF and the test compound compared to the test animal to which only PAF has been administered.

[5] = tested on: PAF-mediated extravasation; test: PAF-induced Extravasation test (Test C), hemoconcentration (hematocrit); format: in vivo; conditions: Cavia porcellus, po, guinea pigs, PAF 100 ng/kg i.v., inhibition of increase in hematocrit, read-out: ED₅₀
Protocol: Still further, the compounds of formula I are indicated for use as inhibitors of PAF-mediated extravasation (the extrusion of plasma from the lumen of the blood vessels into the vessel wall and surrounding tissues) measured as a function of hemoconcentration according to the PAF-induced Extravasation test(Test C) as follows: Male guinea pigs, weighing between 300 and 400 g, are anesthetized, after which time a femoral catheter is inserted. The test compound is administered either orally or parenterally one hour up to 4 hours prior to the introduction of PAF. The PAF (C₁₈-Sandoz, Hanover) is dissolved in Tris-Tyrode's bovine serum albumin buffer and administered intravenously (jugular) at 100 ng/kg. […] The tubes are then centrifuged and the percent of packed red blood cells (hematocrit) is measured (PAF induces a maximal increase in hematocrit at 5 to 7 minutes subsequent to the injection of PAF). The percent increase in hematocrit over the value prior to the injection of PAF is calculated. The hemacrotit values obtained with the test compound are compared to the hemoconcentration values obtained with PAF alone and are expressed as percent inhibition of percent increase in hematocrit.

Question: For C=CCN(CC=C)Cc1ccc(C2=Cc3ccccc3C3=NCCN23)cc1 [Example 3BB, 5-(4ʹ-diallylaminomethylphena]isoquinoline dihydrochloride], which inh. (Abelson 8.1 tumor cells [1]) is on record?
Answer: The inh. was 99%.

Question: And the inh. (Abelson 8.1 tumor cells [2])?
Answer: The inh. was 97%.

Question: How did the Tumor growth (Meth A sarcoma cells) turn out when C1=C(c2ccc(CN3CCCCC3)cc2)N2CCN=C2c2ccccc21.Cl.Cl [Example 3N, 5-(4ʹ-piperidinomethylphenyl)-2,3-dihydroimidazo[2,1-a]isoquinoline dihydrochloride] was run?
Answer: The Tumor growth was “no evidence of the presence of any tumors”.

Question: What about the survivors (Meth A sarcoma cells; none of the control group survived) of the same compound?
Answer: The survivors was “all of the animals”.

Question: With COc1cc(CCc2ccc(C3=Cc4ccccc4C4=NCCN34)cc2)cc(OC)c1OC.Cl [Example 7E, 5-[4ʹ-(3,4,5-trimethoxyphenylethyl)phenyl]-2,3-dihydroimidazo [2,1-a]isoquinoline hydrochloride] as the compound, how does the IC50 [3] read?
Answer: The IC50 was 0.06 µM.

Question: And the ED50 [4]?
Answer: Its ED50 is 5 mg/kg.

Question: What about the ED50 [5] of the same compound?
Answer: Its ED50 is 4.2 mg/kg.
